From publication PMC12030627, “Radioiodinated Bicyclic RGD Peptide Derivatives for Enhanced Tumor Accumulation” (Pharmaceuticals, 2025)
Several values for one entry are separate records, joined by “and”; a condition that tells them apart may be missing. Equal values may be shown once. Starred links: 1 amine or outer side, 2 acyl side, 3 side chain; linkers in the order of their positions; H or OH if unused. Positions of bridges follow the written chain, without caps; N, C: chain ends. Non-standard residues stand in square brackets, D forms with d. Residues, ends and D or L forms follow the SMILES beside them. *: point of attachment. Butanoyl(4-(4-I-phenyl)) = O=C(CCCc1ccc(I)cc1)*; TBMB = c1c(C[*:1])cc(C[*:3])cc1C[*:2]; Palmitoyl = CCCCCCCCCCCCCCCC(=O)*; Benzoyl(3-I) = O=C(c1cccc(I)c1)*; 4Abz = Nc1ccc(C(=O)O)cc1

How the values were obtained:
[1] = Octanol–water distribution coefficient (log D); format: physicochemical; conditions: shake-flask 1-octanol/PBS(–) pH 7.4, 1.0 mL each (1:1), 40 kBq, vortexed 2 min, centrifuged 5000 rpm 5 min, radioactivity by γ-counter, mean of n = 4
Protocol: For log D determination, [^125I]bcRGD, [^125I]bcRGDpal, [^125I]bcRGDiba, or [^125I]bcRGDdimer (40 kBq) was dissolved in 1.0 mL PBS(–) (pH 7.4) and mixed with 1.0 mL 1-octanol (1:1, v/v). The mixture was vortexed for 2 min and centrifuged at 5000 rpm for 5 min. Radioactivity in 0.5 mL of each phase was measured using a γ-counter, and log D values were calculated based on the radioactivity distribution (n = 4).

[2] = Albumin binding, size-exclusion spin column elution after incubation with mouse plasma; format: in vitro ADME; conditions: 37 kBq in 50 μL PBS(–) incubated 37 °C 10 min with 200 μL mouse plasma (male ddY); Sephadex G-50 Fine spin column, 2000 rpm 2 min; γ-counter; eluted/added radioactivity × 100
Protocol: (§1) To assess albumin binding, mouse plasma was obtained by centrifugation of whole blood from male ddY mice (9 weeks old). [^125I]bcRGD, [^125I]bcRGDpal, [^125I]bcRGDiba, or [^125I]bcRGDdimer (37 kBq) in 50 μL PBS(–) was incubated at 37 °C for 10 min with 200 μL of PBS(–), mouse plasma, or human serum albumin (HSA, 45 mg/mL in PBS(–); Wako Pure Chemical Industries, Osaka, Japan). The mixtures were applied to gel filtration spin columns (Sephadex G-50 Fine; Cytiva, Tokyo, Japan), centrifuged (2000 rpm, 2 min), and radioactivity in the eluted fraction was measured with a γ-counter. The high molecular weight fraction was calculated as the elution ratio = (radioactivity in elution)/(added radioactivity) × 100 (%).

[3] = molecular target: T1, human serum albumin (HSA) (Homo sapiens, UniProt P02768); assay: Albumin binding, size-exclusion spin column elution after incubation with HSA; format: in vitro ADME; conditions: 37 kBq in 50 μL PBS(–) incubated 37 °C 10 min with 200 μL HSA 45 mg/mL in PBS(–); Sephadex G-50 Fine spin column, 2000 rpm 2 min; γ-counter; eluted/added radioactivity × 100
T1 construct: purchased Wako Pure Chemical Industries
T1 sequence (P02768 25-609): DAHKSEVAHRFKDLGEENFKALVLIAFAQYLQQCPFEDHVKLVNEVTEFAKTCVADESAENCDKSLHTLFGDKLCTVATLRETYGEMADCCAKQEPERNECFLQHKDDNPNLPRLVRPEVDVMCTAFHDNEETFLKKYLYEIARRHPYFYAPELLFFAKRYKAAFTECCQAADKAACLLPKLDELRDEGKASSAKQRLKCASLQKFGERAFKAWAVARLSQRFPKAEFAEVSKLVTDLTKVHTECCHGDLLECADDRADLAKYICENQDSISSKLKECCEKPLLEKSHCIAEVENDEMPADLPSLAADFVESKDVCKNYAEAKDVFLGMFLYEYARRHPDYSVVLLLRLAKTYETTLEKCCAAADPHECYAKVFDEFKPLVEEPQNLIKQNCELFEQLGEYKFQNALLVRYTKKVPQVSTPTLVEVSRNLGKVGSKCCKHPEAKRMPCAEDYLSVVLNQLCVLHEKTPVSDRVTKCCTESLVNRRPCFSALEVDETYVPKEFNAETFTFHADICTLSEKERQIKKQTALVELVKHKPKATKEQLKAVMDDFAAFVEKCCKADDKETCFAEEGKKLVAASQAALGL
Protocol: as §1

Structure (SMILES) | logD [1] | Elution rate from size-exclusion resin (high molecular weight fraction), mouse plasma [2] [%] | Elution rate from size-exclusion resin (high molecular weight fraction), HSA [3] [%]
N=C(N)NCCC[C@@H]1NC(=O)[C@H]2CSCc3cc(cc(c3)CSC[C@H](C(N)=O)NC(=O)[C@H](CC(=O)O)NC(=O)CNC1=O)CSC[C@H](NC(=O)CNC(=O)[C@H](CO)NC(=O)c1ccc(NC(=O)CNC(=O)[C@H](CO)NC(=O)[C@@H]3CCCN3C(=O)[C@@H]3CCCN3C(=O)[C@@H]3CCCN3C(=O)CCc3cn(CC[C@H](NC(=O)CCNC(=O)c4cccc(I)c4)C(=O)N4CCC[C@H]4C(=O)N4CCC[C@H]4C(=O)N4CCC[C@H]4C(=O)N[C@@H](CO)C(=O)NCC(=O)Nc4ccc(C(=O)N[C@@H](CO)C(=O)NCC(=O)N[C@H]5CSCc6cc7cc(c6)CSC[C@@H](NC(=O)[C@H](CCC(N)=O)NC(=O)[C@@H]6CCCN6C(=O)[C@H](Cc6c[nH]cn6)NC5=O)C(=O)N[C@@H](CCCNC(=N)N)C(=O)NCC(=O)N[C@@H](CC(=O)O)C(=O)N[C@@H](C(N)=O)CSC7)cc4)nn3)cc1)C(=O)N[C@@H](Cc1c[nH]cn1)C(=O)N1CCC[C@H]1C(=O)N[C@@H](CCC(N)=O)C(=O)N2 [[^125I]bcRGDdimer] | -1.98 | 22 | 6
N=C(N)NCCC[C@@H]1NC(=O)[C@H]2CSCc3cc(cc(c3)CSC[C@H](C(N)=O)NC(=O)[C@H](CC(=O)O)NC(=O)CNC1=O)CSC[C@H](NC(=O)CNC(=O)[C@H](CO)NC(=O)c1ccc(NC(=O)CNC(=O)[C@H](CO)NC(=O)[C@@H]3CCCN3C(=O)[C@@H]3CCCN3C(=O)[C@@H]3CCCN3C(=O)[C@H](CCCCNC(=O)c3cccc(I)c3)NC(=O)CCCc3ccc(I)cc3)cc1)C(=O)N[C@@H](Cc1c[nH]cn1)C(=O)N1CCC[C@H]1C(=O)N[C@@H](CCC(N)=O)C(=O)N2 [[^125I]bcRGDiba] ({Butanoyl(4-(4-I-phenyl))}-K(Benzoyl(3-I))PPPSG[4Abz]SGCHPQ[dC]RGD[dC]-NH2; linker 10-14-18 via TBMB) | -0.97 | > 80 | 60
CCCCCCCCCCCCCCCC(=O)N[C@@H](CCCCNC(=O)c1cccc(I)c1)C(=O)N1CCC[C@H]1C(=O)N1CCC[C@H]1C(=O)N1CCC[C@H]1C(=O)N[C@@H](CO)C(=O)NCC(=O)Nc1ccc(C(=O)N[C@@H](CO)C(=O)NCC(=O)N[C@H]2CSCc3cc4cc(c3)CSC[C@@H](NC(=O)[C@H](CCC(N)=O)NC(=O)[C@@H]3CCCN3C(=O)[C@H](Cc3c[nH]cn3)NC2=O)C(=O)N[C@@H](CCCNC(=N)N)C(=O)NCC(=O)N[C@@H](CC(=O)O)C(=O)N[C@@H](C(N)=O)CSC4)cc1 [[^125I]bcRGDpal] (Palmitoyl-K(Benzoyl(3-I))PPPSG[4Abz]SGCHPQ[dC]RGD[dC]-NH2; linker 10-14-18 via TBMB) | 1.71 and > 1 | > 80 | 80
